In US10085990B2, “Tricyclic compounds as modulators of TNF-α synthesis and as PDE4 inhibitors” (vTv Therapeutics LLC, priority 2008, dated 2018) one finds IC50 data, which are given here for 34 compounds.

For the assay, the system named is TNF synthesis in human PBMC. Nature of the assay: Human PBMC TNF Synthesis Assay. Conditions: LPS-stimulated human PBMC, overnight incubation, TNF ELISA; read-out: TNF inhib. The assay is classed as cell-based. On the procedure:
Human PBMC TNF Synthesis Assay
Human PBMC were obtained by from a healthy human donor leuko pak. Typically, all donors were pre-screened for STD, HIV and have been given a physical by a physician. One to two ampoules were thawed at 37° C. and then resuspended in 45 to 85 mL of RPMI+10% FBS to a final concentration of 2.5×10^6 cells/mL. Resuspended cells were filtered to remove any large clumps.
Prepare compounds for addition to cells: All compounds were DMSO stocks at 20 mM. Working stock for cell testing were prepared as 4× concentrated material in RPMI+10% FBS. Compounds were added to a polypropylene block and then diluted with the appropriate amount of RPMI+10% FBS. Typically 2.6 μL of 20 mM stock was diluted to 650 μL final volume to yield an 80 μM starting concentration in the stocks. RPMI was added to DMSO stock by pipetting into the tube or block. The compounds were then serial diluted with RPMI+10% FBS. The final DMSO concentrations were not greater than 0.5% in the assay.
Compounds were added to the cells as 4× working stock. 50 μL of compound was prepared above is added to the cells and re-equilibrated in a humidified 5% CO2 incubator at 37° C. for 30 minutes.
A stock of LPS was prepared using RPMI+10% FBS. To prepare the stock, 2.8 μL of LPS (5 mg/mL; Sigma Cat #L3024) was added to 35 mL of media. 50 μL of the LPS in media was added to the cells. Control cultures without LPS received only RPMI+10% FBS. After an overnight incubation at 37° C., the cell culture supernatant was harvested and stored in a polypropylene 96 well plate.
Samples were tested for TNF as per the manufacturer's instructions (TNF ELISA; R&D Systems, Cat #DY210). The samples were serially diluted with PBS+1% BSA to the appropriate dilution condition for the cell prep, typically a 1:4 or 1:6 dilution.
(An ELISA detects its analyte on a solid surface through an enzyme-linked reagent.)

As for `CCn1c(=O)c2cnc3c(OC)cccc3c2n(C2CCCC2)c1=O` [Example 1, 1-cyclopentyl-3-ethyl-7-methoxy-1H-pyrimido[5,4-c]quinoline-2,4-dione], the IC50 was 0.18 µM.

Consider `CCn1c(=O)c2cnc3c(OC)cccc3c2n(-c2ccc(OC)c(OC)c2)c1=O` [Example 4, 1-(3,4-Dimethoxy-phenyl)-3-ethyl-7-methoxy-1H-pyrimido[5,4-c]quinoline-2,4-dione], for which the IC50 was found to be 14.2 µM. As to `COc1cccc2c1ncc1c(=O)n(C(C)C)c(=O)n(C3CCCC3)c12` [Example 5, 1-Cyclopentyl-3-isopropyl-7-methoxy-1H-pyrimido[5,4-c]quinoline-2,4-dione], the IC50 worked out at 0.27 µM. Consider `COc1cccc2c1ncc1c(=O)n(-c3cccs3)c(=O)n(C3CCCC3)c12` [Example 10, 1-Cyclopentyl-7-methoxy-3-thiophen-2-yl-1H-pyrimido[5,4-c]quinoline-2,4-dione], for which the IC50 was determined as 0.41 µM.

Take `CCCn1c(=O)n(CC)c(=O)c2cnc3c(OC)cccc3c21` [Example 16, 3-Ethyl-7-methoxy-1-propyl-1H-pyrimido[5,4-c]quinoline-2,4-dione]: the IC50 was determined as 0.68 µM.

On to `CCCCn1c(=O)n(CC)c(=O)c2cnc3c(OC)cccc3c21` [Example 17, 1-Butyl-3-ethyl-7-methoxy-1H-pyrimido[5,4-c]quinoline-2,4-dione], for which the IC50 stood at 0.39 µM.

In the case of `CCn1c(=O)c2cnc3c(OC)cccc3c2n(CC(C)C)c1=O` [Example 18, 3-Ethyl-1-isobutyl-7-methoxy-1H-pyrimido[5,4-c]quinoline-2,4-dione], the IC50 came to 1.1 µM. To `CCn1c(=O)c2cnc3c(OC)cc(Cl)cc3c2n(C2CCCC2)c1=O` [Example 28, 9-Chloro-1-cyclopentyl-3-ethyl-7-methoxy-1H-pyrimido[5,4-c]quinoline-2,4-dione] belongs 3.5 µM; to `CCn1c(=O)c2cnc3c(Cl)cccc3c2n(C2CCCC2)c1=O` [Example 30, 7-Chloro-1-cyclopentyl-3-ethyl-1H-pyrimido[5,4-c]quinoline-2,4-dione], 2.5 µM. Then `CCCc1cccc2c1ncc1c(=O)n(CC)c(=O)n(C3CCCC3)c12` [Example 32, 1-Cyclopentyl-3-ethyl-7-propyl-1H-pyrimido[5,4-c]quinoline-2,4-dione], with 2.6 µM; and `CCn1c(=O)c2cnc3c(C(C)C)cccc3c2n(C2CCCC2)c1=O` [Example 33, 1-Cyclopentyl-3-ethyl-7-isopropyl-1H-pyrimido[5,4-c]quinoline-2,4-dione], with 20 µM; and `CCn1c(=O)c2cnc3c(OC(F)(F)F)cccc3c2n(C2CCCC2)c1=O` [Example 34, 1-Cyclopentyl-3-ethyl-7-trifluoromethoxy-1H-pyrimido[5,4-c]quinoline-2,4-dione], with 3.6 µM. Take `CCn1c(=O)c2cnc3c(OC)cccc3c2n(C(C)C)c1=O` [Example 37, 3-Ethyl-1-isopropyl-7-methoxy-1H-pyrimido[5,4-c]quinoline-2,4-dione]: the IC50 amounted to 20 µM. Then `CCC(C)n1c(=O)c2cnc3c(OC)cccc3c2n(C2CCCC2)c1=O` (stereo not shown) [Example 38, 3-sec-Butyl-1-cyclopentyl-7-methoxy-1H-pyrimido[5,4-c]quinoline-2,4-dione], with 0.45 µM; and `COc1cccc2c1ncc1c(=O)n(-c3ccccc3)c(=O)n(C3CCCC3)c12` [Example 39, 1-Cyclopentyl-7-methoxy-3-phenyl-1H-pyrimido[5,4-c]quinoline-2,4-dione], with 1.3 µM. To `CCn1c(=O)c2cnc3c(C)cccc3c2n(C2CCCC2)c1=O` [Example 41, 1-Cyclopentyl-3-ethyl-7-methyl-1H-pyrimido[5,4-c]quinoline-2,4-dione] belongs 0.5 µM; to `CCn1c(=O)c2cnc3c(OC)cccc3c2n(C2CCC(C)CC2)c1=O` (stereo not shown) [Example 45, 3-Ethyl-7-methoxy-1-(4-methyl-cyclohexyl)-1H-pyrimido[5,4-c]quinoline-2,4-dione], 0.2 µM. Then `CCOC(=O)Cn1c(=O)c2cnc3c(OC)cccc3c2n(C2CCCC2)c1=O` [Example 46, (1-Cyclopentyl-7-methoxy-2,4-dioxo-1,4-dihydro-2H-pyrimido[5,4-c]quinolin-3-yl)-acetic acid ethyl ester], with 1 µM. As for `COc1cccc2c1ncc1c(=O)n(C)c(=O)n(C3CCCC3)c12` [Example 48, 1-Cyclopentyl-7-methoxy-3-methyl-1H-pyrimido[5,4-c]quinoline-2,4-dione], the IC50 is 1.4 µM. To `COc1cccc2c1ncc1c(=O)n(-c3cc(C)cs3)c(=O)n(C3CCCC3)c12` [Example 51, 1-Cyclopentyl-7-methoxy-3-(4-methyl-thiophen-2-yl)-1H-pyrimido[5,4-c]quinoline-2,4-dione] belongs 0.03 µM; to `COc1cccc2c1ncc1c(=O)n(-c3cccc(C)c3)c(=O)n(C3CCCC3)c12` [Example 54, 1-Cyclopentyl-7-methoxy-3-m-tolyl-1H-pyrimido[5,4-c]quinoline-2,4-dione], 0.006 µM; to `COc1cccc2c1ncc1c(=O)n(-c3ccc(C)cc3)c(=O)n(C3CCCC3)c12` [Example 55, 1-Cyclopentyl-7-methoxy-3-p-tolyl-1H-pyrimido[5,4-c]quinoline-2,4-dione], 0.163 µM. To `COc1cccc2c1ncc1c(=O)n(-c3cccc(Cl)c3)c(=O)n(C3CCC(C)CC3)c12` (stereo not shown) [Example 72, 3-(3-Chloro-phenyl)-7-methoxy-1-(4-methyl-cyclohexyl)-1H-pyrimido[5,4-c]quinoline-2,4-dione] belongs 0.004 µM; to `COc1cccc2c1ncc1c(=O)n(-c3cccc(Cl)c3)c(=O)n(C3CCCC3)c12` [Example 73, 3-(3-Chloro-phenyl)-1-cyclopentyl-7-methoxy-1H-pyrimido[5,4-c]quinoline-2,4-dione], 0.009 µM. With `CCc1cccc(-n2c(=O)c3cnc4c(OC)cccc4c3n(C3CCCC3)c2=O)c1` [Example 75, 1-Cyclopentyl-3-(3-ethyl-phenyl)-7-methoxy-1H-pyrimido[5,4-c]quinoline-2,4-dione], the IC50 was found to be 0.006 µM. Then `COc1cccc2c1ncc1c(=O)n(-c3cccc(C)c3)c(=O)n(C3CCC(C)CC3)c12` (stereo not shown) [Example 78, 7-Methoxy-1-(4-methyl-cyclohexyl)-3-m-tolyl-1H-pyrimido[5,4-c]quinoline-2,4-dione], with 0.001 µM; and `COc1cccc2c1ncc1c(=O)n(-c3cccc(Cl)c3)c(=O)n(C3CCC(F)(F)CC3)c12` [Example 87, 3-(3-Chloro-phenyl)-1-(4,4-difluoro-cyclohexyl)-7-methoxy-1H-pyrimido[5,4-c]quinoline-2,4-dione], with 0.002 µM; and `COc1cccc2c1ncc1c(=O)n(-c3cccc(Cl)c3)c(=O)n(C3CCN(C(=O)OC(C)(C)C)CC3)c12` [Example 88, 4-[3-(3-Chloro-phenyl)-7-methoxy-2,4-dioxo-3,4-dihydro-2H-pyrimido[5,4-c]quinolin-1-yl]-piperidine-1-carboxylic acid tert-butyl ester], with 0.001 µM. Then `COc1cccc2c1ncc1c(=O)n(-c3cccc(Cl)c3)c(=O)n(C3CCNCC3)c12` [Example 89, 3-(3-Chloro-phenyl)-7-methoxy-1-piperidin-4-yl-1H-pyrimido[5,4-c]quinoline-2,4-dione.dihydrochlode], with 0.005 µM; and `COc1cccc2c1ncc1c(=O)n(-c3cccc(Cl)c3)c(=O)n(C3CCN(C(C)=O)CC3)c12` [Example 90, 1-(1-Acetyl-piperidin-4-yl)-3-(3-chloro-phenyl)-7-methoxy-1H-pyrimido[5,4-c]quinoline-2,4-dione], with 0.002 µM. To `COc1cccc2c1ncc1c(=O)n(-c3cccc(Cl)c3)c(=O)n(C3CCN(C(=O)c4ccccc4)CC3)c12` [Example 91, 1-(1-Benzoyl-piperidin-4-yl)-3-(3-chloro-phenyl)-7-methoxy-1H-pyrimido[5,4-c]quinoline-2,4-dione] belongs 0.001 µM. For the compound `COc1cccc2c1ncc1c(=O)n(-c3cccc(Cl)c3)c(=O)n(C3CCN(S(=O)(=O)C(C)C)CC3)c12` [Example 93, 3-(3-Chloro-phenyl)-7-methoxy-1-[1-(propane-2-sulfonyl)-piperidin-4-yl]-1H-pyrimido[5,4-c]quinoline-2,4-dione], the IC50 was found to be 0.0004 µM. `COc1cccc2c1ncc1c(=O)n(-c3cccc(Cl)c3)c(=O)n(C3CCN(S(=O)(=O)N(C)C)CC3)c12` [Example 94, 4-[3-(3-Chloro-phenyl)-7-methoxy-2,4-dioxo-3,4-dihydro-2H-pyrimido[5,4-c]quinolin-1-yl]-piperidine-1-sulfonic acid dimethylamide]: the IC50 was 0.0004 µM. To `COc1cccc2c1ncc1c(=O)n(-c3cccc(Cl)c3)c(=O)n(C3CCN(S(=O)(=O)c4ccccc4)CC3)c12` [Example 95, 1-(1-Benzenesulfonyl-piperidin-4-yl)-3-(3-chloro-phenyl)-7-methoxy-1H-pyrimido[5,4-c]quinoline-2,4-dione] belongs 0.001 µM.
